Publication PMC5340827 (European Journal of Drug Metabolism and Pharmacokinetics, 2016)

How the values were obtained:
[1] = cited from earlier work
[2] = Pharmacokinetics and bioavailability after single s.c. injection; conditions: for extent of biological availability (EBA), solution relative to suspension: (AUCsolution/AUCsuspension) × 100 %, from AUC0−∞; for presence in the plasma after injection in the form of suspension: 24 h after s.c. 6 mg/kg
[3] = test system: LH, FSH and 17β-estradiol in the serum; experiment: Hormonal profile; assay type: in vivo, rat; conditions: s.c. 1 µg/kg; for highest estradiol concentration, suspension form: 1 h after injection

| Substance | activity / relative potency in relation to natural GnRH [1] | extent of biological availability (EBA), solution relative to suspension [2] | presence in the plasma after injection in the form of suspension [2] | maximal concentration of estradiol, form of solution ([3]; solution, 30 min after injection) | time of maximal concentration of estradiol, form of solution ([3]; solution) | highest estradiol concentration, suspension form [3] | time of highest concentration of FSH, suspension form [3] | EBA of dalarelin relative to buserelin, form of solution ([2]; (AUCdalarelin solution/AUCbuserelin solution) × 100 %) | EBA of dalarelin relative to buserelin, form of suspension ([2]; (AUCdalarelin suspension/AUCbuserelin suspension) × 100 %) |
| --- | --- | --- | --- | --- | --- | --- | --- | --- | --- |
| buserelin | 20 times | 13% | detectable in the plasma even after 24 h | 45.7 pg/mL | 30 min | 21.4 pg/mL | 4 h | – | – |
| dalarelin | roughly 14 times | 8% | detectable in the plasma even after 24 h | – | 30 min | 24.2 pg/mL | 2 h | 53% | 83% |
